Assay results reported in patent US20090105320A1, “Biodal Compositions Containing 1,2-Benzisothiazolin-3-One And 1,2-Dibromo-2,4-Dicyanobutane” (priority 2006, published 2009).
Like-named read-outs stand apart in the source and are kept apart here.

Columns and labels:
[1] = cited from earlier work
[2] = Storage stability (appearance of solution) in different solvents at −5° C., +20° C. and +50° C., 14 days' storage; assay type: physicochemical
[3] = Solubilities of biocidal active substances in different solvents at 25° C.; assay type: physicochemical
[4] = in Butyl polyglycol, 14 days' storage
[5] = in Diethylene glycol, 14 days' storage
[6] = in Dimethyl sulfoxide, 14 days' storage
[7] = in N-Methylpyrrolidone, 14 days' storage
[8] = in Polyethylene glycol 300, 14 days' storage
[9] = in Polyethylene glycol 300, 25° C.
[10] = in Polyethylene glycol 400/glycerol 3:1, 25° C.
[11] = in TEGDME (tetraethylene glycol dimethyl ether), 25° C.
[12] = in dimethyl sulfoxide or N-methylpyrrolidone

| SMILES | Storage stability at +20° C. [2, 4] | Storage stability at +50° C. [2, 4] | Storage stability at −5° C. [2, 4] | Storage stability at +20° C. [2, 5] | Storage stability at +50° C. [2, 5] | Storage stability at −5° C. [2, 5] | Storage stability at +20° C. [2, 6] | Storage stability at +50° C. [2, 6] | Storage stability at −5° C. [2, 6] | Storage stability at +20° C. [2, 7] | Storage stability at +50° C. [2, 7] | Storage stability at −5° C. [2, 7] | Storage stability at +20° C. [2, 8] | Storage stability at +50° C. [2, 8] | Storage stability at −5° C. [2, 8] | Solubility [25° C.] ([3]; in 2-Ethylhexanol, 25° C.) | Solubility [25° C.] ([3]; in Butyl diglycol, 25° C.) [%] | Solubility [25° C.] ([3]; in Butyl polyglycol, 25° C.) [%] | Solubility [25° C.] ([3]; in Diethylene glycol, 25° C.) [%] | Solubility [25° C.] ([3]; in Dimethyl sulfoxide, 25° C.) [%] | also measured |
| --- | --- | --- | --- | --- | --- | --- | --- | --- | --- | --- | --- | --- | --- | --- | --- | --- | --- | --- | --- | --- | --- |
| O=c1[nH]sc2ccccc12 [1,2-Benzisothiazolin-3-one, 1,2-benzisothiazolin-3-one] | clear solution | clear solution | clear solution | clear solution | clear solution | clear solution | clear solution | clear solution | clear solution | clear solution | clear solution | clear solution | clear solution | clear solution | clear solution | insoluble | 7 | 10 | 7 | 30 | Active substance content at which solutions are stable ([1]; propylene glycol/water or diethylene glycol/water mixture, U.S. Pat. No. 4,188,376, higher concentrated solutions liable to precipitation): below 5 % by weight; Solubility in water ([1]; water): sparingly soluble; Solubility [25° C.] ([3]; in Dipropylene glycol, 25° C.): 5%; Solubility [25° C.] ([3]; in Glycerol, 25° C.): insoluble; Solubility [25° C.] ([3]; in N-Methylpyrrolidone, 25° C.): 7%; Solubility [25° C.] [3, 9]: 8%; Solubility [25° C.] [3, 10]: 7%; Solubility [25° C.] ([3]; in Polyglycol D 21/150, 25° C.): 4%; Solubility [25° C.] ([3]; in Polyglycol M 350, 25° C.): 9%; Solubility [25° C.] [3, 11]: 8% |
| N#CCCC(Br)(C#N)CBr (stereo not shown) [1,2-Dibromo-2,4-dicyanobutane, 1,2-dibromo-2,4-dicyanobutane] | clear, yellowish | clear, yellowish | clear, colorless | clear, colorless | clear, colorless | clear, colorless | brown solution | black solution | clear, yellowish | brown solution | black solution | clear, yellowish | clear, yellowish | clear, yellowish | clear, colorless | insoluble | 30 | 40 | 20 | 45 | Chemical stability [1, 12]: chemically unstable; Solubility [1, 12]: readily soluble; Solubility ([1]; in solvents such as glycerol or 2-ethylhexanol): sparingly soluble; Solubility [25° C.] ([3]; in Dipropylene glycol, 25° C.): 10%; Solubility [25° C.] ([3]; in Glycerol, 25° C.): insoluble; Solubility [25° C.] ([3]; in N-Methylpyrrolidone, 25° C.): 40%; Solubility [25° C.] [3, 9]: 35%; Solubility [25° C.] [3, 10]: 20%; Solubility [25° C.] ([3]; in Polyglycol D 21/150, 25° C.): 15%; Solubility [25° C.] ([3]; in Polyglycol M 350, 25° C.): 45%; Solubility [25° C.] [3, 11]: 45% |
